{"source": "patent US11442059B2", "about": "“Method for treating a chronic itch condition by administering small molecule MrgprX4 antagonists” (The Johns Hopkins University, priority 2017, dated 2022)", "format_in_all_cases": "cell-based", "key": {"[1]": {"biological_target": "T1, mouse Mrgpra1 (Mus musculus, UniProt Q91WW5)", "T1 construct": "expressed in transfected cells; host or cells: HEK293", "T1 sequence (Q91WW5 1-304)": "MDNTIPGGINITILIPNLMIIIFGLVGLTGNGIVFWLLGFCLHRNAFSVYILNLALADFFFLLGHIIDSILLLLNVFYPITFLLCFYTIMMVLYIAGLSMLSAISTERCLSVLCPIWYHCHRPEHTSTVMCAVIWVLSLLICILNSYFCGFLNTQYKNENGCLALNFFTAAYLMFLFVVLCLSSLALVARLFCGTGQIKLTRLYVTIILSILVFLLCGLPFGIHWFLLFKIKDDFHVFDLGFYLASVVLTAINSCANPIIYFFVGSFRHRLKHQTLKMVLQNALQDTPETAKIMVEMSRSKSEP", "test": "Ca2+ imaging / EC50 determination in HEK293 cells expressing Mrgpra1", "procedure": "(§1) Lamotrigine (LTG), allopurinol, carbamazepine and oxcarbazepine (all from Sigma) were prepared fresh on the day of the experiment. These drugs were dissolved into dimethyl sulfoxide (DMSO) first, and then were diluted at least 10000× into calcium imaging buffer before use. The final concentrations of drugs for each experiment were indicated in the corresponding figure legend.\n(§2) In initial experiments, HEK293 cells were plated on 100 μg/ml poly-D-lysine coated glass cover slips, and transiently transfected with vector containing Mrgprs gene, after 24-48 hours of culture, cells were loaded with Fura 2-acetomethoxy ester calcium indicator (0.5 μM, Molecular Probes) along with pluronic F-127 dispersing agent (0.1%, Molecular Probes) for 30 minutes in the dark at 37° C., then washed with calcium imaging buffer (CIB; NaCl 125 mM, KCl 3 mM, CaCl2 2.5 mM, MgCl2 0.6 mM, HEPES 10 mM, glucose 20 mM, NaHCO3 1.2 mM, sucrose 20 mM, brought to pH 7.4 with NaOH). Drugs were added to Fura 2-loaded cells and intracellular free calcium was measured using 340 nm and 380 nm excitation wavelengths with emission measured at 520 nm with a microscope based imaging system (Nikon Eclipse TE200). Changes in emission fluorescence ratios at 340/380 nm excitation were continuously monitored at 1 second intervals. Later, experiments were performed using Mrgpra1-GFP, Mrgprc11-GFP and MRGPRX4-GFP stable cell lines to confirm the findings obtained from the transiently expressing cells.\n(§3) Mrgpra1 or both wild-type and mutant MRGPRX4 stably expressed HEK cells were plated overnight in 100 μl culture media on 96-well plates. […] After 1 hour of incubation at 37° C., cells were allowed to recover for 10 minutes in the dark at room temperature prior to performing intracellular calcium mobilization assay in a FLEXSTATION® multi-mode plate reader (Molecular Devices). […] Responses were determined by subtracting the minimum signal (at the basal level before adding the drug) from the maximum signal (obtained after stimulating with the drug). […]"}, "[2]": {"biological_target": "T2, Mrgpra1-GFP (Mus musculus, UniProt Q91WW5)", "T2 construct": "expressed in transfected cells", "T2 sequence (Q91WW5 1-304)": "T1 sequence (Q91WW5 1-304)", "test": "Receptor internalization assay, Mrgpra1-GFP HEK293 cells", "conditions": "37° C.", "procedure": "(§4) To label the drug with red-fluorescent dye, […] of LTG was dissolved in 50 μl dimethyformamide (DMF) first, and further diluted with 450 μl reaction buffer (0.1M sodium bicarbonate buffer, pH9.0) to obtain LTG at a concentration of 7.8 mM. Then, 50 μl of Texas-red-conjugated sulfonyl chloride (Thermo Fisher Scientific, T1905) dissolved in DMF at 10 mg ml−1 was slowly added into LTG solution. The reaction was incubated at 4° C. for 1 hour with continuous stirring. The mixture was then diluted into cell culture medium for further use. LTG labeled with Texas Red dye can create bright red-fluorescence with excitation/emission maxima ˜595/615 nm. HEK293 cells stably expressing Mrgpra1-GFP, Mrgprc11-GFP or MRGPRX4-GFP fusion protein were grown in DMEM with 10% FBS. After 4-6 hours of serum starvation, cells were treated with either medium, dye alone, unlabeled LTG or Texas-Red-labeled LTG at 37° C. for 15 or 60 min. Cells were washed with PBS and fixed with 4% paraformaldehyde in PBS. The subcellular localization of Mrgpr-GFP or drug was visualized under a confocal fluorescence microscope with a 400× magnification (Zeiss LSM 700)."}, "[3]": {"biological_target": "MRGPRX4-GFP (Homo sapiens, UniProt Q96LA9)", "sequence (Q96LA9 whole entry)": "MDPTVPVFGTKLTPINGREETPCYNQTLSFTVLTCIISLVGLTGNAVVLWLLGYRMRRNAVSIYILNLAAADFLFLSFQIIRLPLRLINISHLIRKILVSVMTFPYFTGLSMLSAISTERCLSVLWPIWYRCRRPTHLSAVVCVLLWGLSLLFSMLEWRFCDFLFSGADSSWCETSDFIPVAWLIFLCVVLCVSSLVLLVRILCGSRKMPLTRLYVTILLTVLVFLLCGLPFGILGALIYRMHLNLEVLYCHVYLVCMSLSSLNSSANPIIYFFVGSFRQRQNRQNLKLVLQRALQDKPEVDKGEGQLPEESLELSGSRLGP", "test": "Receptor internalization assay, MRGPRX4-GFP HEK293 cells", "conditions": "37° C.", "procedure": "as §4"}, "[4]": {"biological_target": "T3, Mrgprc11-GFP (Mus musculus, UniProt Q8CIP3)", "T3 construct": "expressed in transfected cells", "T3 sequence (Q8CIP3 1-322)": "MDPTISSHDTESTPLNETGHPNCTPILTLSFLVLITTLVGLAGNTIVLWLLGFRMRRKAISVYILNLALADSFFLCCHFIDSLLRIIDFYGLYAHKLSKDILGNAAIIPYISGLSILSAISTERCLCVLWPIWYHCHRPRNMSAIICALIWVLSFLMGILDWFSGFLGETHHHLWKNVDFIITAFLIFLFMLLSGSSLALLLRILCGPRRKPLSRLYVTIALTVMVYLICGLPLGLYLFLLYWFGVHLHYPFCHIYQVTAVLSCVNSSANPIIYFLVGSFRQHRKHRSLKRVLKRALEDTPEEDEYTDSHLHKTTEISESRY", "test": "Receptor internalization assay, Mrgprc11-GFP HEK293 cells", "conditions": "data not shown", "procedure": "as §4"}, "[5]": {"tested_on": "human dendritic cells", "test": "Calcium imaging of human dendritic cells", "procedure": "as §2\nHuman Peripheral Blood Dendritic Cells from four different donors were purchased from Lonza (cc-2701) and […] Technologies (70041). […]"}, "[6]": {"biological_target": "MRGPRX4 (Homo sapiens, UniProt Q96LA9)", "sequence (Q96LA9 whole entry)": "as the sequence (Q96LA9 whole entry) above", "test": "Ca2+ imaging / EC50 determination in HEK293 cells expressing MRGPRX4", "parameters": "expressed in transfected cells", "procedure": "as §1, §2, §3"}, "[7]": {"conditions": "Mrgprs individually expressed in HEK293 cells"}}, "data": [{"smiles": "Nc1nnc(-c2cccc(Cl)c2Cl)c(N)n1", "note": "[LTG, Lamotrigine]", "values": [{"measurement": "EC50", "setting": "[1]; HEK293 cells, Ca2+ assay", "value": "~30", "unit": "µM"}, {"measurement": "activation of mouse Mrgpra1 (Ca2+ imaging)", "setting": "[1]; [7]", "value": "specifically activated"}, {"measurement": "internalization of Mrgpra1-GFP", "setting": "[2]", "value": "can induce the internalization"}, {"measurement": "internalization of MRGPRX4-GFP", "setting": "[3]", "value": "can induce the internalization"}, {"measurement": "internalization of Mrgprc11-GFP", "setting": "[4]", "value": "did not induce the internalization"}, {"measurement": "cells activated (Ca2+ imaging)", "setting": "[5]", "value": "about 5%"}, {"measurement": "EC50", "setting": "[6]; HEK293 cells, Ca2+ assay", "value": "~200", "unit": "µM"}, {"measurement": "activation of human MRGPRX4 (Ca2+ imaging)", "setting": "[6]; [7]", "value": "specifically activated"}]}]}
